Data reported in patent US8258134B2, “Pyridazinone glucokinase activators” (Hoffmann-La Roche Inc., priority 2008, dated 2012).

biological target: T1, Recombinant human liver GK1 (GST-GK) (Homo sapiens, UniProt P35557); experiment: Glucokinase in vitro assay (G6PDH-coupled NADH generation, OD340); assay type: biochemical; conditions: 5 mM D-glucose, 30° C., pH 7.1, 10% DMSO
T1 construct: made in house; host or cells: E. coli
T1 sequence (P35557 1-466 isoform P35557-2): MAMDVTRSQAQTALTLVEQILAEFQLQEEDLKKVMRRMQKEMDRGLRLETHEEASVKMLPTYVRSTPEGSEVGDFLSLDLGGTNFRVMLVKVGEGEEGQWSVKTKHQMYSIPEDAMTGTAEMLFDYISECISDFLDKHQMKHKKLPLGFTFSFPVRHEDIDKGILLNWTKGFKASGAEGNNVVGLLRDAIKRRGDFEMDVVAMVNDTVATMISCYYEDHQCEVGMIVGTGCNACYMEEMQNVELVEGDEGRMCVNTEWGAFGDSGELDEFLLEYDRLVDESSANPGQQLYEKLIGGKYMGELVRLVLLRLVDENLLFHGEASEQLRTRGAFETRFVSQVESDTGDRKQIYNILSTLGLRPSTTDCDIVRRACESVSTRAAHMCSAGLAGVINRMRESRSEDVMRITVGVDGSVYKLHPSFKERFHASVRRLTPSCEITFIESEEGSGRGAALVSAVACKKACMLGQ
Method in brief: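 Activation readout is SC1.5, the activator concentration raising GK rate (OD340/min) 50% above 10% DMSO controls. The coupled reaction used GST-GK1 from E. coli, 5 mM glucose, 1 mM ATP, 1.8 mM NAD and 25 mM Hepes pH 7.1 at 30° C. Enzyme was added after a 10 min compound pre-incubation.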

Row | Structure (SMILES) | SC1.5 average (concentration of activator that produced a 50% increase in the activity of GK)
1 | O=C(Nc1ccn(C[C@H](O)CO)n1)C(CC1CCCC1)n1ncc(Oc2c(F)cccc2F)cc1=O (stereo partly drawn) [Example 65, 3-Cyclopentyl-2-[4-(2,6-difluoro-phenoxy)-6-oxo-6H-pyridazin-1-yl]-N-[1-((S)-2,3-dihydroxy-propyl)-1H-pyrazol-3-yl]-propionamide] | 0.102 µM
2 | O=C(Nc1ccn(C[C@H](O)CO)n1)[C@H](CC1CCCC1)n1ncc(Oc2c(F)cccc2F)cc1=O [Example 65A, (S)-3-Cyclopentyl-2-[4-(2,6-difluoro-phenoxy)-6-oxo-6H-pyridazin-1-yl]-N-[1-((S)-2,3-dihydroxy-propyl)-1H-pyrazol-3-yl]-propionamide] | 0.049 µM
3 | O=C(Nc1ccn(C[C@H](O)CO)n1)[C@@H](CC1CCCC1)n1ncc(Oc2c(F)cccc2F)cc1=O [Example 65B, (R)-3-Cyclopentyl-2-[4-(2,6-difluoro-phenoxy)-6-oxo-6H-pyridazin-1-yl]-N-[1-((S)-2,3-dihydroxy-propyl)-1H-pyrazol-3-yl]-propionamide] | 3.148 µM
4 | COC(=O)c1ccc(NC(=O)C(CC2CCCC2)n2ncc(Oc3ccccc3C3CCCC3)cc2=O)nc1 (stereo not drawn) [Example 66, 6-{3-Cyclopentyl-2-[4-(2-cyclopentyl-phenoxy)-6-oxo-6H-pyridazin-1-yl]-propionylamino}-nicotinic acid methyl ester] | 1.74 µM
5 | COC(=O)c1ccc(NC(=O)C(CC2CCCC2)n2ncc(Oc3cccc4c3CCCC4)cc2=O)nc1 (stereo not drawn) [Example 67, 6-{3-Cyclopentyl-2-[6-oxo-4-(5,6,7,8-tetrahydro-naphthalen-1-yloxy)-6H-pyridazin-1-yl]-propionylamino}-nicotinic acid methyl ester] | 0.132 µM
6 | COC(=O)c1ccc(NC(=O)C(CC2CCCC2)n2ncc(Oc3c(F)cccc3F)cc2=O)nc1 (stereo not drawn) [Example 68, 6-{3-Cyclopentyl-2-[4-(2,6-difluoro-phenoxy)-6-oxo-6H-pyridazin-1-yl]-propionylamino}-nicotinic acid methyl ester] | 0.013 µM
7 | COC(=O)c1ccc(NC(=O)[C@H](CC2CCCC2)n2ncc(Oc3c(F)cccc3F)cc2=O)nc1 [Example 68A, 6-{(S)-3-Cyclopentyl-2-[4-(2,6-difluoro-phenoxy)-6-oxo-6H-pyridazin-1-yl]-propionylamino}-nicotinic acid methyl ester] | 0.008 µM
8 | COC(=O)c1ccc(NC(=O)[C@@H](CC2CCCC2)n2ncc(Oc3c(F)cccc3F)cc2=O)nc1 [Example 68B, 6-{(R)-3-Cyclopentyl-2-[4-(2,6-difluoro-phenoxy)-6-oxo-6H-pyridazin-1-yl]-propionylamino}-nicotinic acid methyl ester] | 0.597 µM
9 | COC(=O)c1ccc(NC(=O)C(CC2CCCC2)n2ncc(Oc3ccccc3C)cc2=O)nc1 (stereo not drawn) [Example 69, 6-[3-Cyclopentyl-2-(6-oxo-4-o-tolyloxy-6H-pyridazin-1-yl)-propionylamino]-nicotinic acid methyl ester] | 0.033 µM
10 | COC(=O)c1ccc(NC(=O)C(CC2CCCC2)n2ncc(Oc3ccccc3F)cc2=O)nc1 (stereo not drawn) [Example 70, 6-{3-Cyclopentyl-2-[4-(2-fluoro-phenoxy)-6-oxo-6H-pyridazin-1-yl]-propionylamino}-nicotinic acid methyl ester] | 0.036 µM
11 | O=C(O)c1ccc(NC(=O)C(CC2CCCC2)n2ncc(Oc3cccc4c3CCCC4)cc2=O)nc1 (stereo not drawn) [Example 72, 6-{3-Cyclopentyl-2-[6-oxo-4-(5,6,7,8-tetrahydro-naphthalen-1-yloxy)-6H-pyridazin-1-yl]-propionylamino}-nicotinic acid] | 0.098 µM
12 | O=C(O)c1ccc(NC(=O)[C@H](CC2CCCC2)n2ncc(Oc3cccc4c3CCCC4)cc2=O)nc1 [Example 72A, 6-{(S)-3-Cyclopentyl-2-[6-oxo-4-(5,6,7,8-tetrahydro-naphthalen-1-yloxy)-6H-pyridazin-1-yl]-propionylamino}-nicotinic acid] | 0.044 µM
13 | O=C(O)c1ccc(NC(=O)[C@@H](CC2CCCC2)n2ncc(Oc3cccc4c3CCCC4)cc2=O)nc1 [Example 72B, 6-{(R)-3-Cyclopentyl-2-[6-oxo-4-(5,6,7,8-tetrahydro-naphthalen-1-yloxy)-6H-pyridazin-1-yl]-propionylamino}-nicotinic acid] | 0.226 µM
14 | O=C(O)c1ccc(NC(=O)C(CC2CCCC2)n2ncc(Oc3c(F)cccc3F)cc2=O)nc1 (stereo not drawn) [Example 73, 6-{3-Cyclopentyl-2-[4-(2,6-difluoro-phenoxy)-6-oxo-6H-pyridazin-1-yl]-propionylamino}-nicotinic acid] | 0.026 µM
15 | O=C(O)c1ccc(NC(=O)[C@H](CC2CCCC2)n2ncc(Oc3c(F)cccc3F)cc2=O)nc1 [Example 73A, 6-{(S)-3-Cyclopentyl-2-[4-(2,6-difluoro-phenoxy)-6-oxo-6H-pyridazin-1-yl]-propionylamino}-nicotinic acid] | 0.012 µM
16 | O=C(O)c1ccc(NC(=O)[C@@H](CC2CCCC2)n2ncc(Oc3c(F)cccc3F)cc2=O)nc1 [Example 73B, 6-{(R)-3-Cyclopentyl-2-[4-(2,6-difluoro-phenoxy)-6-oxo-6H-pyridazin-1-yl]-propionylamino}-nicotinic acid] | 0.507 µM
17 | Cc1ccccc1Oc1cnn(C(CC2CCCC2)C(=O)Nc2ccc(C(=O)O)cn2)c(=O)c1 (stereo not drawn) [Example 74, 6-[3-Cyclopentyl-2-(6-oxo-4-o-tolyloxy-6H-pyridazin-1-yl)-propionylamino]-nicotinic acid] | 0.067 µM
18 | Cc1ccccc1Oc1cnn([C@@H](CC2CCCC2)C(=O)Nc2ccc(C(=O)O)cn2)c(=O)c1 [Example 74A, 6-[(S)-3-Cyclopentyl-2-(6-oxo-4-o-tolyloxy-6H-pyridazin-1-yl)-propionylamino]-nicotinic acid] | 0.043 µM
19 | Cc1ccccc1Oc1cnn([C@H](CC2CCCC2)C(=O)Nc2ccc(C(=O)O)cn2)c(=O)c1 [Example 74B, 6-[(R)-3-Cyclopentyl-2-(6-oxo-4-o-tolyloxy-6H-pyridazin-1-yl)-propionylamino]-nicotinic acid] | 0.245 µM
20 | O=C(O)c1ccc(NC(=O)C(CC2CCCC2)n2ncc(Oc3ccccc3F)cc2=O)nc1 (stereo not drawn) [Example 75, 6-{3-Cyclopentyl-2-[4-(2-fluoro-phenoxy)-6-oxo-6H-pyridazin-1-yl]-propionylamino}-nicotinic acid] | 0.058 µM
21 | O=C(O)c1ccc(NC(=O)[C@H](CC2CCCC2)n2ncc(Oc3ccccc3F)cc2=O)nc1 [Example 75A, 6-{(S)-3-Cyclopentyl-2-[4-(2-fluoro-phenoxy)-6-oxo-6H-pyridazin-1-yl]-propionylamino}-nicotinic acid] | 0.033 µM
22 | O=C(O)c1ccc(NC(=O)[C@@H](CC2CCCC2)n2ncc(Oc3ccccc3F)cc2=O)nc1 [Example 75B, 6-{(R)-3-Cyclopentyl-2-[4-(2-fluoro-phenoxy)-6-oxo-6H-pyridazin-1-yl]-propionylamino}-nicotinic acid] | 0.796 µM
23 | O=C(Nc1cnccn1)C(CC1CCCC1)n1ncc(Oc2ccccc2C(F)(F)F)cc1=O (stereo not drawn) [Example 76, 3-Cyclopentyl-2-[6-oxo-4-(2-trifluoromethyl-phenoxy)-6H-pyridazin-1-yl]-N-pyrazin-2-yl-propionamide] | 0.376 µM
24 | CN(c1ccccc1)c1cnn(C(CC2CCCC2)C(=O)Nc2ccn(CC(C)(C)O)n2)c(=O)c1 (stereo not drawn) [Example 77, 3-Cyclopentyl-N-[1-(2-hydroxy-2-methyl-propyl)-1H-pyrazol-3-yl]-2-[4-(methyl-phenyl-amino)-6-oxo-6H-pyridazin-1-yl]-propionamide] | 21.07 µM
25 | CC(C)(O)Cn1ccc(NC(=O)C(CC2CCCC2)n2ncccc2=O)n1 (stereo not drawn) [Example 78, 3-Cyclopentyl-N-[1-(2-hydroxy-2-methyl-propyl)-1H-pyrazol-3-yl]-2-(6-oxo-6H-pyridazin-1-yl)-propionamide] | 14.436 µM
26 | O=C(Nc1nccs1)C(CC1CCCC1)n1ncccc1=O (stereo not drawn) [Example 79, 3-Cyclopentyl-2-(6-oxo-6H-pyridazin-1-yl)-N-thiazol-2-yl-propionamide] | 14.605 µM
27 | COc1cnn(C(CC2CCCC2)C(=O)Nc2nccs2)c(=O)c1 (stereo not drawn) [Example 80, 3-Cyclopentyl-2-(4-methoxy-6-oxo-6H-pyridazin-1-yl)-N-thiazol-2-yl-propionamide] | 3.208 µM
